Data reported in patent publication US8895313B2, “Ligands for aggregated tau molecules” (Wista Laboratories Ltd., priority 2008, dated 2014).

Biological target: PHF (paired helical filaments) isolated from the brain of an Alzheimer's disease patient (Homo sapiens, UniProt P10636)
Assay: Competitive binding assay: displacement of primulin fluorescence from PHFs
Set-up: key to P50: fl indicates that the compound is fluorescent. Consequently, binding levels for the compound in the competition binding assay cannot be determined by fluorescent spectroscopy
Conditions: for IC50: read-out: P50
Procedure: The DSB compounds were tested for their ability to bind to PHF in a competition-style assay.
If a test compound that also binds to PHFs with the same or greater affinity is added, it will displace the reference ligand and reduce the fluorescence signal. In the present assay, the reference compound is primulin, which was added at 1 μM. Test compounds were added at concentrations from 0.05 to 1 μM. The P50 for a test compound is defined as the concentration of compound that reduces the primulin signal to 50% of the control value. This value is, therefore, not an absolute affinity, but a relative affinity compared to the affinity of primulin.
PHFs were isolated from the brain of an Alzheimer's disease patient essentially as described by Wischik et al. (Neurobiology of Aging, Vol. 16, pp. 409-431, 1995). The IFII fraction was isolated by centrifugation on a sucrose gradient as described in the PhD thesis of C. M. Wischik, and was further extracted into an ‘abc sup’ as described by C. M. Wischik (Thesis “The structure and biochemistry of paired helical filaments in Alzheimer's disease” Part I and II; Cambridge University, 1989).
The assay for ligand activity was performed in 96 well plates (Nunc Cat. No. 236108). The test compound at the required concentration was mixed with PHFs, then primulin was added to give a final concentration of 1 μM and a total volume of 100 μl. The concentration of PHFs added was determined for each preparation to give an adequate fluorescence signal, and was typically in the range 1-2 μl/100 μl. The test compounds were typically dissolved in DMSO to give a final concentration of 10% DMSO in the assay. The control fluorescence, in the absence of PHFs, was also measured in the presence of 10% DMSO.
The fluorescence was measured in a Varian Carey Eclipse Fluorescence Spectrophotometer, with the […] wavelength at 480 nm. Excitation spectra were recorded and corrected by subtraction of the signal measured in the absence of PHFs, using the Varian software. The fluorescence signal at the peak […] wavelength of 420 nm was measured from the corrected spectra. The fluorescence values were plotted as a function of concentration of test compound, and the value for P50 measured from the graph.

[1] = concentration that reduces the signal of 1 μM primulin to 50% of control, relative affinity
[2] = compound fluorescent, no P50 obtainable

Chain of PHF (paired helical filaments) isolated from the brain of an Alzheimer's disease patient (P10636 623-708 limits assumed): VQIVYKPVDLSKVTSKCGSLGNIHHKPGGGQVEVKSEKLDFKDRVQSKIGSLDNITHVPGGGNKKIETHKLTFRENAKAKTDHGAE

Row | Structure (SMILES) | IC50 [1] [nM] | other results
1 | Cc1ccc2nc(-c3ccc(NC(=O)c4ccc(N)cc4)cc3)cn2c1 [AIPN-11] | 660 | 
2 | CNc1ccc(C(=O)Nc2ccc(-c3cn4cc(C)ccc4n3)cc2)cc1 [AIPN-12] | 330 | 
3 | COc1ccc(C(=O)Nc2ccc(-c3cn4cc(C)ccc4n3)cc2)cc1 [AIPN-13] | 630 | 
4 | Cc1ccc2nc(-c3ccc(NC(=O)c4ccc(O)cc4)cc3)cn2c1 [AIPN-14] | 500 | 
5 | Cc1ccc2nc(-c3ccc(NC(=O)c4cc(F)c(N(C)C)c(F)c4)cc3)cn2c1 [AIPN-16] | > 1000 | 
6 | Cc1ccc2nc(-c3ccc(NC(=O)c4ccc(F)c(C(F)(F)F)c4)cc3)cn2c1 [AIPN-17] |  | P50 [1]: no effect
7 | Cc1ccc2nc(-c3ccc(NC(=O)c4ccc(Cl)nc4)cc3)cn2c1 [AIPN-18] | > 1000 | 
8 | CNc1ccc(C(=O)Nc2ccc(-c3cn4cc(C)ccc4n3)cc2)cc1F [AIPN-20] | 270 | 
9 | CNc1c(F)cc(C(=O)Nc2ccc(-c3cn4cc(C)ccc4n3)cc2)cc1F [AIPN-21] | 460 | 
10 | Cc1ccc2nc(-c3ccc(NC(=O)c4ccc(N(C)C)c(F)c4)cc3)cn2c1 [AIPN-22] | 760 | 
11 | COc1ccc(C(=O)Nc2ccc(-c3cn4cc(C)ccc4n3)cc2)cc1F [AIPN-23] | 950 | 
12 | COc1c(F)cc(C(=O)Nc2ccc(-c3cn4cc(C)ccc4n3)cc2)cc1F [AIPN-24] | ~1000 | 
13 | COc1cc(F)c(C(=O)Nc2ccc(-c3cn4cc(C)ccc4n3)cc2)c(F)c1 [AIPN-25] | > 1000 | 
14 | Cc1ccc2nc(-c3ccc(NC(=O)c4cc(F)c(O)c(F)c4)cc3)cn2c1 [AIPN-26] | > 1000 | 
15 | Cc1ccc2nc(-c3ccc(NC(=O)c4ccc(O)c(F)c4)cc3)cn2c1 [AIPN-27] | > 1000 | 
16 | COc1ccc(C(=O)Nc2ccc(-c3cn4cc(C)ccc4n3)cc2)cc1C(F)(F)F [AIPN-28] | > 1000 | 
17 | Cc1ccc2nc(-c3ccc(NC(=O)c4ccc(O)cc4F)cc3)cn2c1 [AIPN-29] | 700 | 
18 | COc1cc(NC(=O)c2ccc(F)c([N+](=O)[O-])c2)ccc1-c1nc2ccccc2s1 [AUB-01] | > 1000 | 
19 | COCCOCCOCCOc1cc(NC(=O)c2ccc(F)c([N+](=O)[O-])c2)ccc1-c1nc2ccccc2s1 [AUB-02] | > 1000 | 
20 | CN(C)CCOc1cc(NC(=O)c2ccc([N+](=O)[O-])c(C(F)(F)F)c2)ccc1-c1nc2ccccc2s1 [AUB-03] | > 1000 | 
21 | Cc1ccc2nc(-c3ccc(/N=N/c4ccc(O)cc4C(F)(F)F)cc3)sc2c1 [BDF-01] | 290 | 
22 | Cc1ccc2nc(-c3ccc(/N=N/c4cc(C(F)(F)F)ccc4O)cc3)sc2c1 [BDF-02] | 460 | 

Row | Structure (SMILES) | IC50 [1] [nM] | other results
23 | COc1ccc2nc(-c3ccc(/N=N/c4ccc(O)cc4C(F)(F)F)cc3)sc2c1 [BDF-03] | 130 | 
24 | Oc1ccc(/N=N/c2ccc(-c3nc4ccc(O)cc4s3)cc2)c(C(F)(F)F)c1 [BDF-04] | 80 | 
25 | Oc1ccc(/N=N/c2ccc(-c3nc4cc(O)ccc4s3)cc2)c(C(F)(F)F)c1 [BDF-05] | 90 | 
26 | CN(C)c1ccc2nc(-c3ccc(/N=N/c4ccc(O)cc4C(F)(F)F)cc3)sc2c1 [BDF-06] | 40 | 
27 | Oc1ccc(/N=N/c2ccc(-c3nc4ccc(OC(F)(F)F)cc4s3)cc2)cc1 [BDF-07] | 720 | 
28 | Cc1ccc2nc(-c3ccc(/N=N/c4c(C(F)(F)F)cc(O)cc4C(F)(F)F)cc3)sc2c1 [BDF-08] |  | P50 [1]: no effect
29 | Oc1ccc(/N=N/c2ccc(-c3nc4cc(OC(F)(F)F)ccc4s3)cc2)cc1 [BDF-09] |  | P50 [1]: no effect
30 | COc1ccc2sc(-c3ccc(/N=N/c4ccc(C(F)(F)F)cc4O)cc3)nc2c1 [BDF-10] | 870 | 
31 | COc1ccc2sc(-c3ccc(/N=N/c4ccc(O)cc4C(F)(F)F)cc3)nc2c1 [BDF-11] | 600 | 
32 | COc1cccc2sc(-c3ccc(/N=N/c4ccc(C(F)(F)F)cc4O)cc3)nc12 [BDF-12] | 700 | 
33 | COc1cccc2sc(-c3ccc(/N=N/c4ccc(O)cc4C(F)(F)F)cc3)nc12 [BDF-13] | 350 | 
34 | Oc1ccc(/N=N/c2ccc(-c3nc4ccc(O)cc4s3)c(O)c2)c(C(F)(F)F)c1 [BDF-14] | 20 | 
35 | Oc1ccc(/N=N/c2ccc(-c3nc4ccc(O)cc4s3)c(O)c2)c(OCCCC(F)(F)F)c1 [BDF-15] | 140 | 
36 | Oc1ccc(/N=N/c2ccc(-c3nc4ccc(O)cc4s3)cc2O)c(C(F)(F)F)c1 [BDF-16] | 30 | 
37 | Oc1ccc(/N=N/c2ccc(-c3nc4ccc(O)cc4s3)cc2O)c(OC(F)(F)F)c1 [BDF-17] | 30 | 
38 | COc1ccc2nc(-c3ccc(/C=C/c4ccccc4C(F)(F)F)cc3)sc2c1 [BEFA-01] |  | P50 [1]: no effect
39 | COc1ccc2nc(-c3ccc(/C=C/c4cccc(C(F)(F)F)c4)cc3)sc2c1 [BEFA-02] |  | P50 [1]: no effect
40 | COc1ccc2nc(-c3ccc(/C=C/c4ccc(C(F)(F)F)cc4)cc3)sc2c1 [BEFA-03] |  | P50 [1]: no effect
41 | COc1ccc2nc(-c3ccc(/C=C/c4ccc(OCC(F)(F)F)cc4)cc3)sc2c1 [BEFA-04] |  | P50 [1]: no effect
42 | COc1ccc2nc(-c3ccc(/C=C/c4ccc(NC(=O)C(F)(F)F)cc4)cc3)sc2c1 [BEFA-06] |  | P50 [2]: fl
43 | COc1ccc2nc(-c3ccc(/C=C/c4ccc(NCCCC(F)(F)F)cc4)cc3)sc2c1 [BEFA-09] |  | P50 [1]: no effect
44 | COc1ccc2nc(-c3ccc(/C=C/c4ccc(F)cc4)cc3)sc2c1 [BEFA-10] |  | P50 [2]: fl

Row | Structure (SMILES) | IC50 [1] [nM] | other results
45 | COc1ccc2nc(-c3ccc(/C=C/c4ccc(OCCF)cc4)cc3)sc2c1 [BEFA-12] |  | P50 [1]: no effect
46 | Oc1ccc2nc(-c3ccc(/C=C/c4ccc(F)cc4)cc3)sc2c1 [BEHF-01] |  | P50 [2]: fl
47 | Oc1ccc2nc(-c3ccc(/C=C/c4ccc(NCC(F)(F)F)cc4)cc3)sc2c1 [BEHF-02] |  | P50 [2]: fl
48 | Oc1ccc2nc(-c3ccc(/C=C/c4ccc(NCCCC(F)(F)F)cc4)cc3)sc2c1 [BEHF-04] |  | P50 [1]: no effect
49 | Oc1ccc2nc(-c3ccc(/C=C/c4cc(OC(F)(F)F)ccc4O)cc3)sc2c1 [BEHF-06] |  | P50 [2]: fl
50 | Oc1ccc(/C=C/c2ccc(-c3nc4ccc(O)cc4s3)cc2)c(C(F)(F)F)c1 [BEHF-07] |  | P50 [2]: fl
51 | Cc1ccc2nc(-c3ccc(/C=C/c4ccccc4)cc3)sc2c1 [BEMA-01] |  | P50 [1]: no effect
52 | Cc1ccc2nc(-c3ccc(/C=C/c4ccccc4N)cc3)sc2c1 [BEMA-05] |  | P50 [1]: no effect
53 | Cc1ccc2nc(-c3ccc(/C=C/c4cccc(N)c4)cc3)sc2c1 [BEMA-06] |  | P50 [1]: no effect
54 | Cc1ccc2nc(-c3ccc(/C=C/c4ccc(N(C)C)cc4)cc3)sc2c1 [BEMA-08] |  | P50 [2]: fl
55 | Cc1ccc2nc(-c3ccc(/C=C/c4ccccc4O)cc3)sc2c1 [BEMA-09] |  | P50 [1]: no effect
56 | Cc1ccc2nc(-c3ccc(/C=C/c4cccc(O)c4)cc3)sc2c1 [BEMA-10] | ~1200 | 
57 | Cc1ccc2nc(-c3ccc(/C=C/c4ccc(O)cc4)cc3)sc2c1 [BEMA-11] |  | P50 [1]: no effect
58 | COc1cccc(/C=C/c2ccc(-c3nc4ccc(C)cc4s3)cc2)c1 [BEMA-12] |  | P50 [1]: no effect
59 | COc1ccc2nc(-c3ccc(/C=C/c4ccc([N+](=O)[O-])cc4)cc3)sc2c1 [BEMOA-03] | 40 | 
60 | COc1ccc2nc(-c3ccc(/C=C/c4cccc(N)c4)cc3)sc2c1 [BEMOA-05] | 280 | 
61 | COc1ccc2nc(-c3ccc(/C=C/c4ccc(N)cc4)cc3)sc2c1 [BEMOA-06] |  | P50 [1]: no effect
62 | COc1ccc2nc(-c3ccc(/C=C/c4ccc(O)c([N+](=O)[O-])c4)cc3)sc2c1 [BEMOA-09] | 30 | 
63 | Cc1ccc2nc(-c3ccc(/N=N/c4ccc(N(C)C)cc4)cc3)cn2c1 [DPN-001] | 30 | 
64 | Cc1ccc2nc(-c3ccc(/C=C/c4ccc([N+](=O)[O-])cc4)cc3)cn2c1 [IEPN-01] | 50 | 
